Each compound was assayed against SIK2 (Homo sapiens, UniProt Q9H0K1) (assay: SIK2 Enzymatic Assay High Version 2 (High ATP)). Details: not given.
Type: biochemical
Outline: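 At room temperature, enzyme (6 nM, 2× final) was preincubated with compound for 30 min, then 6 mM ATP and 400 μM HDAC5tide (both 2× final) were added for 2 h. ADP formed was measured by ADP-Glo Max (2 h reagent, 1 h detection) using luminescence.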

Chain of SIK2 (Q9H0K1 whole entry, species assumed): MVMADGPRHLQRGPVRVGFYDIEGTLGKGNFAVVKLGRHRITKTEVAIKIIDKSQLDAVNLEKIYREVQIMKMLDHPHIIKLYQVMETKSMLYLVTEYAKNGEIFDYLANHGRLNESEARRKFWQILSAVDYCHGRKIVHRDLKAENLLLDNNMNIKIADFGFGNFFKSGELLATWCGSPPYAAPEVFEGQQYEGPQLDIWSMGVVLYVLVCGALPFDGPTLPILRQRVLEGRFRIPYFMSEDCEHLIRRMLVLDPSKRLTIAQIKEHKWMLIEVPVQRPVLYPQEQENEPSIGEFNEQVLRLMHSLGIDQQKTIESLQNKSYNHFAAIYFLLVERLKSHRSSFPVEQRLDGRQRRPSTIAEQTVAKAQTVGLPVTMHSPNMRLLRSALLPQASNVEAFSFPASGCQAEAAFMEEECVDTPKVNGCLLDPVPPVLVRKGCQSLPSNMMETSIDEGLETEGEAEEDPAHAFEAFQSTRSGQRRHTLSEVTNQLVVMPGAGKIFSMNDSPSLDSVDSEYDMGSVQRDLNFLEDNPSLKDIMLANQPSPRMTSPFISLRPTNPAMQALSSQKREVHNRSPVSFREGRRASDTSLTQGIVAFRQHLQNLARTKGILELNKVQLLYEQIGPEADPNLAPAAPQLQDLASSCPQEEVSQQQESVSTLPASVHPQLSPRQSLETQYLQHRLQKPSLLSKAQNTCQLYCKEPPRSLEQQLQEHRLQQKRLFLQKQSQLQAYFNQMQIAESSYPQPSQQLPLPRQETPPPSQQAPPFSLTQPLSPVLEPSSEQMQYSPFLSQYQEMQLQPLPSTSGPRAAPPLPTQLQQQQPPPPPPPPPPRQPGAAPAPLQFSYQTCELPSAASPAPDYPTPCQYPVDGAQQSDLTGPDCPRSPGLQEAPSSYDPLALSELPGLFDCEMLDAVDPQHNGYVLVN

| Compound | IC50 [µM] |
| --- | --- |
| CCNC(=O)c1ccc(Nc2cc3cc(-c4cc(C)ncc4O[C@H]4C[C@H]5COC[C@@H](C4)N5)ccn3n2)nn1 [Example 385, N-ethyl-6-[[5-[2-methyl-5-[[(1S,5R,7s)-3-oxa-9-azabicyclo[3.3.1]nonan-7-yl]oxy]-4-pyridyl]pyrazolo[1,5-a]pyridin-2-yl]amino]pyridazine-3-carboxamide] | 0.0012 |
| CCC(=O)c1ccc(O[C@H]2C[C@H]3COC[C@@H](C2)N3)c(-c2ccn3nc(NC(=O)C4CC4)cc3c2)c1 [Example 480, N-[5-[2-[[(1R,5S)-3-oxa-9-azabicyclo[3.3.1]nonan-7-yl]oxy]-5-propanoyl-phenyl]pyrazolo[1,5-a]pyridin-2-yl]cyclopropanecarboxamide] | < 0.000847 |
| Cc1cc(-c2ccn3nc(Nc4cnccn4)cc3c2)c(O[C@H]2C[C@H]3COC[C@@H](C2)N3)nn1 [Example 486, 5-[6-methyl-3-[[(1S,5R)-3-oxa-9-azabicyclo[3.3.1]nonan-7-yl]oxy]pyridazin-4-yl]-N-pyrazin-2-yl-pyrazolo[1,5-a]pyridin-2-amine] | 0.0285 |
| CC#Cc1cc(-c2ccn3nc(NC(=O)C4CC4)cc3c2)c(O[C@@H]2C[C@H]3COC[C@@H](C2)N3)cn1 [Example 439, N-[5-[5-[[(1S,5R)-3-oxa-9-azabicyclo[3.3.1]nonan-7-yl]oxy]-2-prop-1-ynyl-4-pyridyl]pyrazolo[1,5-a]pyridin-2-yl]cyclopropanecarboxamide] | 0.00103 |
| Cc1cc(-c2ccn3nc(Nc4cnn(C)c4)cc3c2)c(O[C@H]2C[C@H]3COC[C@@H](C2)N3C)cn1 [Example 124] | 0.00124 |

Same assay, conditions: enzyme 6 nM, 6 mM ATP and 400 μM HDAC5tide (each 2× final concentration); 30 minutes pre-incubation, 2 hours; ADP-Glo Max luminescence; read-out: SIK2 high ATP IC50 (μM) (Test Example 2)

| Compound | IC50 [µM] |
| --- | --- |
| CNc1nc(C)cc(Nc2cc3cc(-c4cc(C)ncc4OCC(C)(C)O)ccn3n2)n1 [Example 228, 2-methyl-1-[[6-methyl-4-[2-[[6-methyl-2-(methylamino)pyrimidin-4-yl]amino]pyrazolo[1,5-a]pyridin-5-yl]-3-pyridyl]oxy]propan-2-ol] | 0.00167 |
| Cc1cc(-c2ccn3nc(Nc4cc(C)nc(N5CCOCC5)n4)cc3c2)c(OCC(C)(C)O)cn1 [Example 286, 2-methyl-1-[[6-methyl-4-[2-[(6-methyl-2-morpholino-pyrimidin-4-yl)amino]pyrazolo[1,5-a]pyridin-5-yl]-3-pyridyl]oxy]propan-2-ol] | 0.0166 |
| Cc1cc(-c2ccn3nc(NC(=O)C4CC4)cc3c2)c(O[C@@H]2CCC[C@@H](O)C2)cn1 (single isomer, unassigned) [Example 194, trans-N-(5-(5-(((1*R,3*R)-3-hydroxycyclohexyl)oxy)-2-methylpyridin-4-yl)pyrazolo[1,5-a]pyridin-2-yl)cyclopropanecarboxamide] | 0.0412 |
| Cc1cc(-c2ccn3nc(NC(=O)C4CC4)cc3c2)c(O[C@H]2CCC[C@H](O)C2)cn1 (single isomer, unassigned) [Example 195, trans-N-(5-(5-(((1*S,3*S)-3-hydroxycyclohexyl)oxy)-2-methylpyridin-4-yl)pyrazolo[1,5-a]pyridin-2-yl)cyclopropanecarboxamide] | 0.0116 |
| (*S)-4-[[6-(difluoromethoxy)-4-[2-[(2,6-dimethylpyrimidin-4-yl)amino]pyrazolo[1,5-a]pyridin-5-yl]-3-pyridyl]oxymethyl]-1,5,5-trimethyl-pyrrolidin-2-one [Example 741] | 0.00266 |
| Cc1cc(-c2ccn3nc(NC(=O)C4CC4)cc3c2)c(OC[C@]23CN[C@H](CO2)C3)cn1 [Example 253, N-[5-[2-methyl-5-[[(1S,4S)-5-oxa-2-azabicyclo[2.2.1]heptan-4-yl]methoxy]-4-pyridyl]pyrazolo[1,5-a]pyridin-2-yl]cyclopropanecarboxamide] | 0.00479 |
| Cc1cc(-c2ccn3nc(Nc4ccc(C)nn4)cc3c2)c(OC[C@]23C[C@H](CO2)N(C)C3)cn1 [Example 256, 5-[2-methyl-5-[[(1R,4R)-2-methyl-5-oxa-2-azabicyclo[2.2.1]heptan-4-yl]methoxy]-4-pyridyl]-N-(6-methylpyridazin-3-yl)pyrazolo[1,5-a]pyridin-2-amine] | 0.0198 |

The next lines start with the values.

| IC50 [µM] | Compound |
| --- | --- |
| 0.0238 | CC(=O)O[C@H]1CC[C@H](Oc2nnc(C)cc2-c2ccn3nc(Nc4cc(C)nc(C)n4)cc3c2)CC1 [Example 487, [4-[4-[2-[(2,6-dimethylpyrimidin-4-yl)amino]pyrazolo[1,5-a]pyridin-5-yl]-6-methyl-pyridazin-3-yl]oxycyclohexyl] acetate] |
| 0.00436 | CC#Cc1cc(-c2ccn3nc(NC(=O)C4CC4)cc3c2)c(OC[C@@H]2CNCCO2)cn1 [Example 443, N-[5-[5-[[(2S)-morpholin-2-yl]methoxy]-2-prop-1-ynyl-4-pyridyl]pyrazolo[1,5-a]pyridin-2-yl]cyclopropanecarboxamide] |
| 0.0176 | Cc1cc(Nc2cc3cc(-c4cc(Cl)ncc4OC[C@@H]4CNCCO4)ccn3n2)nc(C)n1 [Example 497, 5-[2-chloro-5-[[(2S)-morpholin-2-yl]methoxy]-4-pyridyl]-N-(2,6-dimethylpyrimidin-4-yl)pyrazolo[1,5-a]pyridin-2-amine] |
| 0.00568 | Cc1ccc(Nc2cc3cc(-c4cc(C)ncc4OC[C@@H]4CNCCO4)ccn3n2)nc1 [Example 425, 5-[2-methyl-5-[[(2S)-morpholin-2-yl]methoxy]-4-pyridyl]-N-(5-methyl-2-pyridyl)pyrazolo[1,5-a]pyridin-2-amine] |
| 0.00144 | Cc1cc(-c2ccn3nc(Nc4cc(C)nc(N5CCCC5)n4)cc3c2)c(O[C@H]2CC[C@H](O)CC2)cn1 [Example 287, 4-[[6-methyl-4-[2-[(6-methyl-2-pyrrolidin-1-yl-pyrimidin-4-yl)amino]pyrazolo[1,5-a]pyridin-5-yl]-3-pyridyl]oxy]cyclohexanol] |
| 0.0494 | Cc1cc(-c2ccn3nc(Nc4cc(C)nc(C)n4)cc3c2)c(OCCN)cn1 [Example 557, 5-[5-(2-aminoethoxy)-2-methyl-4-pyridyl]-N-(2,6-dimethylpyrimidin-4-yl)pyrazolo[1,5-a]pyridin-2-amine] |
| 0.175 | Cc1cc(-c2ccn3nc(Nc4cc(C)nc(C)n4)cc3c2)c(OC[C@@H]2CN(S(C)(=O)=O)CCO2)cn1 [Example 629, N-(2,6-dimethylpyrimidin-4-yl)-5-[2-methyl-5-[[(2S)-4-methylsulfonylmorpholin-2-yl]methoxy]-4-pyridyl]pyrazolo[1,5-a]pyridin-2-amine] |
| 0.0462 | Cc1cc(-c2ccn3nc(Nc4cc(C)nc(C)n4)cc3c2)c(OC[C@H](O)C2(C)CC2)cn1 (single isomer, unassigned) [Example 548, (*R)-2-[[4-[2-[(2,6-dimethylpyrimidin-4-yl)amino]pyrazolo[1,5-a]pyridin-5-yl]-6-methyl-3-pyridyl]oxy]-1-(1-methylcyclopropyl)ethanol] |
| 0.00142 | Cc1nccc(Nc2cc3cc(-c4cc(OC(F)F)ncc4OCC(C)(C)C#N)ccn3n2)n1 [Example 717, 3-[[6-(difluoromethoxy)-4-[2-[(2-methylpyrimidin-4-yl)amino]pyrazolo[1,5-a]pyridin-5-yl]-3-pyridyl]oxy]-2,2-dimethyl-propanenitrile] |
| 0.00511 | Cc1cc(-c2ccn3nc(NC(=O)C4CC4)cc3c2)c(OCC2(c3ccccc3)CNC2)cn1 [Example 470, N-[5-[2-methyl-5-[(3-phenylazetidin-3-yl)methoxy]-4-pyridyl]pyrazolo[1,5-a]pyridin-2-yl]cyclopropanecarboxamide] |
| 0.755 | CC(=O)N1CCO[C@H](COc2cnc(C)cc2-c2ccn3nc(Nc4cc(C)nc(C)n4)cc3c2)C1 [Example 628, 1-[(2S)-2-[[4-[2-[(2,6-dimethylpyrimidin-4-yl)amino]pyrazolo[1,5-a]pyridin-5-yl]-6-methyl-3-pyridyl]oxymethyl]morpholin-4-yl]ethanone] |
| 0.0317 | Cc1cc(Nc2cc3cc(-c4cc(O[C@H](C)C#N)ncc4OCC(C)(C)C#N)ccn3n2)nc(C)n1 (single isomer, unassigned) [Example 680, (*R)-3-[[6-(1-cyanoethoxy)-4-[2-[(2,6-dimethylpyrimidin-4-yl)amino]pyrazolo[1,5-a]pyridin-5-yl]-3-pyridyl]oxy]-2,2-dimethyl-propanenitrile] |
| 0.00703 | Cc1cc(-c2ccn3nc(Nc4cc(C)nc(C)n4)cc3c2)c(OCC(C)(C)NS(C)(=O)=O)cn1 [Example 361, N-[2-[[4-[2-[(2,6-dimethylpyrimidin-4-yl)amino]pyrazolo[1,5-a]pyridin-5-yl]-6-methyl-3-pyridyl]oxy]-1,1-dimethyl-ethyl]methanesulfonamide] |
| 0.0443 | Cc1cc(Nc2cc3cc(-c4cc(C#N)ccc4O[C@H]4CC[C@H](O)CC4)ccn3n2)nc(C)n1 [Example 483, 3-[2-[(2,6-dimethylpyrimidin-4-yl)amino]pyrazolo[1,5-a]pyridin-5-yl]-4-(4-hydroxycyclohexoxy)benzonitrile] |
| 0.071 | Cc1cc(Nc2cc3cc(-c4cc(OC(F)(F)F)ccc4OCC(C)(C)C#N)ccn3n2)nc(C)n1 [Example 754, 3-[2-[2-[(2,6-dimethylpyrimidin-4-yl)amino]pyrazolo[1,5-a]pyridin-5-yl]-4-(trifluoromethoxy)phenoxy]-2,2-dimethyl-propanenitrile] |
| 0.0155 | CC(C)(C#N)COc1cnc(OCC#N)cc1-c1ccn2nc(NC(=O)C3CC3)cc2c1 [Example 724, N-[5-[2-(cyanomethoxy)-5-(2-cyano-2-methyl-propoxy)-4-pyridyl]pyrazolo[1,5-a]pyridin-2-yl]cyclopropanecarboxamide] |
| 0.0425 | Cc1cc(-c2ccn3nc(Nc4cc(C)nc(C)n4)cc3c2)c(OCC2CC(=O)N(C)C2)cn1 (racemic) [Example 542, (rac-)-4-[[4-[2-[(2,6-dimethylpyrimidin-4-yl)amino]pyrazolo[1,5-a]pyridin-5-yl]-6-methyl-3-pyridyl]oxymethyl]-1-methyl-pyrrolidin-2-one] |

Source: US20240158392A1 (Janssen Biotech, Inc., priority 2021, published 2024)
